Measurements from patent US9834525B2, “Inhibitors of paxillin function and related compositions and methods” (UNIVERSITY OF TENNESSEE RESEARCH FOUNDATION, priority 2015, dated 2017).
“Also recorded” adds a separate entry of the source.

System: paxillin (pY118)
Assay: Western blot of VEGF-induced paxillin Y118 phosphorylation in REC
Type: cell-based, human
Protocol: REC, Mel 270, OMM 2.5 under Hepatocyte Growth Factor (HGF) or Vascular Endothelial Growth Factor (VEGF) stimulation conditions: Cell lysates were collected in RIPA lysis buffer (50 mM Tris-HCl, pH 7.4, 150 mM NaCl, 2 mM EDTA, 1% Nonidet P-40, 0.1% SDS) with protease 1× inhibitor cocktail (Roche; Indianapolis, Ind.). Lysates were kept on ice and centrifuged at 10,000×g×10 minutes and total protein was measured using the BCA assay (Pierce, Rockford, Ill.). Protein samples were mixed with 4×LDS loading buffer with 2.5% 2-mercaptoethanol (Sigma-Aldrich), heated to 70° C. for 10 minutes, and loaded on NuPAGE 4-12% Bis-Tris gel (Invitrogen, Carlsbad, Calif.). Immunoblotting was performed with nitrocellulose membranes (Bio-Rad, Hercules, Calif.) at 170-mA start and 110-mA end at 25 V for two hours in NuPAGE transfer buffer (Invitrogen) containing 20% methanol. Membranes were blocked using Odyssey blocking buffer (LI-COR; Lincoln, Nebr.) for one hour at room temperature with gentle shaking Membranes were then incubated at 4° C. with specific primary antibodies (1:1000) overnight. Cellular protein was normalized using rabbit-GAPDH or mouse-α-Tubulin [1:20,000] (Cell Signaling, Danvers, Mass.; LI-COR, respectively). Secondary antibodies (IRDye 800CW goat anti-rabbit and IRDye 680LT goat anti-mouse) [1:10,000] were incubated in the dark at room temperature for 45 minutes. Dual-channel infrared scan and quantitation of immunoblots were conducted using the ODYSSEY Sa infrared imaging system with Image Studio (Ver. 3.1.4) (LI-COR).
The α4 subunit of the cytoplasmic tail of VLA-4 interacts with the cytoskeletal adaptor paxillin, merging intracellular signaling events that drive cellular proliferation and migration (FIG. 13). Compound (II-4) inhibits phosphorylation of paxillin at Y118 (pY118) in the LD-region that interacts with the α4 subunit of VLA-4. To confirm the inhibition of pY118 of paxillin after use of compound (II-4) retinal endothelial cells (REC) were activated with Vascular Endothelial Growth Factor (VEGF) at 50 ng/mL in the presence or absence (vehicle) of compound (II-4) at a concentration of […] for 4-hrs. […] VEGF-induced pY118 was prevented by treatment with compound (II-4) [VEGF-REC treatment versus untreated, *p<0.005; VEGF-induced versus compound (II-4) treatment, **p<0.05—FIG. 13C].
To gain insight into the mechanistic basis for this phenotype, the effect of compound (II-4) on the Src/FAK/paxillin/ERK signalsome in RECs under VEGF was examined. […] Next, characterization of the potential of compound (II-4) to affect FA disassembly through inactivation of ERK was explored. […]
FIG. 13: Targeting the alpha-4 subunit of VLA-4 signaling through inhibition of paxillin. […] Phosphorylation measured by Western Blot. […]

For `COc1cc(C2OC(=O)Nc3c2ccc2ccccc32)cc(OC)c1OC` (centres unmarked) [compound II-4], the “VEGF-induced PaxY118 phosphorylation (FIG. 20)” value (REC under VEGF, compound (II-4) 500 nM, SU6656 1 μM) was “able to inhibit; also recorded: reduced” and the “VEGF-induced paxillin phosphorylation (pY118)” value (REC, VEGF 50 ng/mL, 4 hrs, inhibitor 1 μM (printed 104)) was “prevented; also recorded: reduced”.
